Bounds are passed on as bounds.

The target of this assay is FGFR2 (Homo sapiens (Human), UniProt P21802). In words: FGFR2 Biochemical Caliper Assay. How it is done: Compounds of the present invention were also tested in a FGFR2 Biochemical Caliper Assay. Compounds were prepared in 10 mM DMSO solution and serially diluted into 11 concentrations by 3-fold dilution. […] 5 uL of ATP solution (100 uM) was added to start the reaction and the plate was incubated for 90 minutes, then 70 uL of stopping buffer (0.5M EDTA) was added to terminate the reaction. Each well was analyzed using EZ reader.
Sequence of FGFR2 (P21802 22-821): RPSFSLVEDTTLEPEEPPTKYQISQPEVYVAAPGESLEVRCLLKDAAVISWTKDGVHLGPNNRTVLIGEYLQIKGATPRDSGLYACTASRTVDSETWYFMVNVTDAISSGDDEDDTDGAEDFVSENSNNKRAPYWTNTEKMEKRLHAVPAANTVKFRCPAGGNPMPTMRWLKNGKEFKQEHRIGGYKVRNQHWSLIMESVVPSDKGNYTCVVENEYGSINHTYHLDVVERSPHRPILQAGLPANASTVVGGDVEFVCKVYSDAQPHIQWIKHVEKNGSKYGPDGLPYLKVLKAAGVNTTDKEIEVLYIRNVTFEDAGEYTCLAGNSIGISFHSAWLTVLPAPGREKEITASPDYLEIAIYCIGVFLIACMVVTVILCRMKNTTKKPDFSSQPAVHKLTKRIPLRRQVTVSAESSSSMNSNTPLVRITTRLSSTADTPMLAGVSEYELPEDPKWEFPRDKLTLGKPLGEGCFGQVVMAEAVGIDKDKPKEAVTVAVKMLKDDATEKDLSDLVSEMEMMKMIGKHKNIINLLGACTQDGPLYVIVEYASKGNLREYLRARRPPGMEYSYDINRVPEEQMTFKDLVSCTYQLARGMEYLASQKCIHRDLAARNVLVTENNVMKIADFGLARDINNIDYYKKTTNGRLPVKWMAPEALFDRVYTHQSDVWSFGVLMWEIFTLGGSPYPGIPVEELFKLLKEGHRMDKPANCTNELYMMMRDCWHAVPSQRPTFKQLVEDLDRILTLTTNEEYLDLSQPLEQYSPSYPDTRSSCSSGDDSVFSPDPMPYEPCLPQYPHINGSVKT
One may read the IC50 as the midpoint of a concentration-inhibition curve. The compound `C=CC(=O)N1CC(c2c(-c3ccc(Oc4ccccc4)cc3)c3c(N)ncnc3n2C)C1` [Example 604] yielded an IC50 of less than 100 nM.
Consider `C=CC(=O)N[C@H]1CC[C@@H](c2c(-c3ccc(Oc4cccc(C)n4)c(OC)c3)c3c(N)ncnc3n2C)CC1` [Example 624], for which the IC50 lay within 1000 to 100000 nM.
`C=C(C)C(=O)Nc1ccc(-c2c(-c3ccc(C(=O)N(C)c4ncccn4)cc3)c3c(N)ncnc3n2C)cc1` [Example 256]: the IC50 lay within 1000 to 100000 nM.
Compound `Cn1c(-c2ccc(NC(=O)C3CO3)cc2)c(-c2ccc(C(=O)N3CCCC3)cc2)c2c(N)ncnc21` (stereo not shown) [Example 586] had an IC50 of 100 to 250 nM.
For `C=C(C)C(=O)Nc1ccc(-c2c(-c3ccc(Oc4ncc(CO)cn4)cc3)c3c(N)ncnc3n2C)cc1` [Example 64] the value was 1000 to 100000 nM; for `C=CC(=O)N1CCC(n2cc(-c3c(-c4c(Cl)ccc5c4OCO5)c4c(N)ncnc4n3C)cn2)CC1` [Example 616], 1000 to 100000 nM; for `C=C(C)C(=O)Nc1ccc(-c2c(-c3ccc(Oc4ccc(F)cn4)c(O)c3)c3c(N)ncnc3n2C)cc1` [Example 111], 1000 to 100000 nM.
Next, `C=C(C)C(=O)Nc1ccc(-c2c(-c3ccc(-n4cncn4)nc3)c3c(N)ncnc3n2C)cc1` [Example 184]: 1000 to 100000 nM; `C=CC(=O)Nc1ccc(-c2c(-c3cnn(CC4CCNCC4)c3)c3c(N)ncnc3n2C)cc1` [Example 151]: 250 to 1000 nM; `CC(Cl)C(=O)Nc1ccc(-c2c(-c3ccc(C(=O)N4CCCC4)cc3)c3c(N)ncnc3n2C)cc1` (stereo not shown) [Example 561]: 250 to 1000 nM.
Next, `C=C(C)C(=O)Nc1ccc(-c2c(-c3ccc(Oc4ncc(N(C)C)cn4)c(F)c3)c3c(N)ncnc3n2C)cc1` [Example 455]: 250 to 1000 nM; `C=C(C)C(=O)Nc1ccc(-c2c(-c3ccc(Oc4ccccc4)cc3)c3c(N)ncnc3n2C)cc1` [Example 23]: 250 to 1000 nM.
The compound `C/C(=C\CN(C)C)C(=O)Nc1ccc(-c2c(-c3ccc(C(=O)N4CCCC4)cc3)c3c(N)ncnc3n2C)cc1` [Example 553] came in with an IC50 of 250 to 1000 nM.
Next, `C=C(C)C(=O)Nc1ccc(-c2c(-c3ccc4c(c3)CS(=O)(=O)C4)c3c(N)ncnc3n2C)cc1` [Example 193]: 1000 to 100000 nM.
`C=C(C)C(=O)Nc1ccc(-c2c(C3=CC[C@@H](C(=O)N4CC[C@@H](F)C4)CC3)c3c(N)ncnc3n2C)cc1` (single isomer, unassigned) [Example 591] displayed an IC50 of 100 to 250 nM.
For `C=CC(=O)N1CCC(n2cc(-c3c(-c4cc(OC)c(Cl)cc4Cl)c4c(N)ncnc4n3C)cn2)CC1` [Example 613] the value was 1000 to 100000 nM; for `C=C(C)C(=O)Nc1ccc(-c2c(-c3ccc(C(=O)NCC4(C)CC4)cc3)c3c(N)ncnc3n2C)cc1` [Example 349], less than 100 nM.
`C=C(C)C(=O)Nc1ccc(-c2c(-c3ccc(C(=O)N4CCC(OC)CC4)cc3)c3c(N)ncnc3n2C)cc1` [Example 242] showed an IC50 of 1000 to 100000 nM.
For `C=C(C)C(=O)Nc1ccc(-c2c(-c3cc(O)c(Oc4ncccn4)c(CC)c3)c3c(N)ncnc3n2C)cc1` [Example 200] the value was 1000 to 100000 nM; for `C=C(C)C(=O)Nc1ccc(-c2c(C3=CCN(C(=O)NC)CC3)c3c(N)ncnc3n2C)cc1` [Example 268], 1000 to 100000 nM.
For `Cn1c(-c2ccc(NC(=O)C3=CCC3)cc2)c(C2=CC[C@H](C(=O)N3CCCC3)CC2)c2c(N)ncnc21` (single isomer, unassigned) [Example 579] the value was 250 to 1000 nM.
`C=C(C)C(=O)Nc1ccc(-c2c(C3=CC[C@H](C(=O)N4CC[C@@H](CO)C4)CC3)c3c(N)ncnc3n2C)cc1` (single isomer, unassigned) [Example 575] yielded an IC50 of 1000 to 100000 nM.
Next, `C=C(C)C(=O)Nc1ccc(-c2c(-c3ccc(C(=O)NCCCO)cc3)c3c(N)ncnc3n2C)cc1` [Example 336]: 100 to 250 nM.
Turning to `Cn1c(-c2ccc(NC(=O)C=C3CCCC3)cc2)c(-c2ccc(C(=O)N3CCCC3)cc2)c2c(N)ncnc21` [Example 545], the concentration for half-maximal inhibition (IC50) is 1000 to 100000 nM.
For `C=CC(=O)Nc1ccc(-c2c(-c3ccc(N(C)c4ncccn4)c(OC)c3)c3c(N)ncnc3n2C)cc1` [Example 57], the IC50 was 100 to 250 nM.
For `C=C(C)C(=O)Nc1ccc(-c2c(-c3ccc4c(c3)OCCN4C)c3c(N)ncnc3n2C)cc1` [Example 175] the value was less than 100 nM; for `C=C(C)C(=O)Nc1ccc(-c2c(C3=CC[C@H](C(=O)N4CC[C@@H](F)C4)CC3)c3c(N)ncnc3n2C)cc1` (single isomer, unassigned) [Example 576], 1000 to 100000 nM; for `C=C(C)C(=O)Nc1ccc(-c2c(-c3ccc(-c4cc(C)no4)cc3)c3c(N)ncnc3n2C)cc1` [Example 277], 250 to 1000 nM.
`C=C(C)C(=O)Nc1ccc(-c2c(-c3ccc(C(=O)NC4CCNC4)cc3)c3c(N)ncnc3n2C)cc1` (stereo not shown) [Example 358] gave an IC50 of less than 100 nM.
For `C=C(C)C(=O)Nc1ccc(-c2c(-c3cc(OC)ncc3F)c3c(N)ncnc3n2C)cc1` [Example 139] the value was 1000 to 100000 nM; for `C=C(C)C(=O)Nc1ccc(-c2c(-c3ccc(Oc4ncc(F)cn4)c(C)c3)c3c(N)ncnc3n2C)cc1` [Example 109], 100 to 250 nM; for `C=C(C)C(=O)Nc1ccc(-c2c(C3=CC[C@H](C(=O)N4CC[C@@H](OC)C4)CC3)c3c(N)ncnc3n2C)cc1` (single isomer, unassigned) [Example 580], 1000 to 100000 nM.
Compound `C=C(C)C(=O)Nc1ccc(-c2c(-c3cnc(Oc4cccc(C)n4)cn3)c3c(N)ncnc3n2C)cc1` [Example 480] yielded an IC50 of 250 to 1000 nM.
Compound `C=C(C)C(=O)Nc1ccc(-c2c(-c3ccc(C(=O)N(C)CC4CCOC4)cc3)c3c(N)ncnc3n2C)cc1` (stereo not shown) [Example 469] came in with an IC50 of 250 to 1000 nM.
For `C=C(C)C(=O)Nc1ccc(-c2c(-c3ccc(Sc4ccccc4)nc3)c3c(N)ncnc3n2C)cc1` [Example 225], the IC50 is 250 to 1000 nM.
`C=C(C)C(=O)Nc1ccc(-c2c(-c3ccn4ccnc4c3)c3c(N)ncnc3n2C)cc1` [Example 153] had an IC50 of 1000 to 100000 nM.
For `C=CC(=O)N1CCc2cc(-c3c(-c4ccc(Oc5cccc(C)n5)cc4)c4c(N)ncnc4n3C)ccc2C1` [Example 20] the value was 100 to 250 nM.
For `C=C(C)C(=O)Nc1ccc(-c2c(-c3ccc4c(cnn4C(C)C)c3)c3c(N)ncnc3n2C)cc1` [Example 170] the value was 250 to 1000 nM; for `C=CC(=O)Nc1ccc(-c2c(-c3ccc(Oc4ccncc4)c(OC)c3)c3c(N)ncnc3n2C)cc1` [Example 39], 100 to 250 nM.
Next, `C=C(C)C(=O)Nc1ccc(-c2c(-c3ccc(C(=O)N4CCC(F)CC4)cc3)c3c(N)ncnc3n2C)cc1` [Example 251]: 250 to 1000 nM.
Compound `C=C(C)C(=O)Nc1ccc(-c2c(-c3ccc4c(c3)CCN4C(=O)NC)c3c(N)ncnc3n2C)cc1` [Example 232] came in with an IC50 of 250 to 1000 nM.
For `C=CC(=O)Nc1ccc(-c2c(-c3cccc(OC)c3)c3c(N)ncnc3n2C)cc1` [Example 25] the value was less than 100 nM; for `C=C(C)C(=O)Nc1ccc(-c2c(-c3ccc(CN(C)C(C)=O)cc3)c3c(N)ncnc3n2C)cc1` [Example 198], 1000 to 100000 nM; for `C=C(C)C(=O)Nc1ccc(-c2c(-c3ccc4c(c3)CC(NC(C)=O)C4)c3c(N)ncnc3n2C)cc1` (stereo not shown) [Example 204], 1000 to 100000 nM.
For `C=C(C)C(=O)Nc1ccc(-c2c(-c3ccc(C(=O)N4CCCC4)cc3)c3c(N)ncnc3n2C)c(C2CC2)c1` [Example 478] the value was 100 to 250 nM.
Next, `C=C(C)C(=O)Nc1ccc(-c2c(-c3ccc(C(=O)NCC4(O)CCC4)cc3)c3c(N)ncnc3n2C)cc1` [Example 347]: less than 100 nM; `C=C(C)C(=O)Nc1ccc(-c2c(-c3ccc(=O)n(Cc4ccccc4)c3)c3c(N)ncnc3n2C)cc1` [Example 182]: 1000 to 100000 nM; `C=C(C)C(=O)Nc1ccc(-c2c(-c3ccc(CN4CCN(C)CC4)cc3)c3c(N)ncnc3n2C)cc1` [Example 172]: 1000 to 100000 nM.
Consider `C=C(C)C(=O)Nc1ccc(-c2c(-c3ccc(C(=O)NCCO)cc3)c3c(N)ncnc3n2C)cc1` [Example 322], for which the IC50 was in the range of 250 to 1000 nM.
Next, `C=CC(=O)Nc1ccc(-c2c(-c3ccc(Oc4cncc(C)c4)c(OC)c3)c3c(N)ncnc3n2C)cc1` [Example 41]: less than 100 nM; `C=C(C)C(=O)Nc1ccc(-c2c(-c3ccc(C(=O)N(C)C[C@H]4CCOC4)cc3)c3c(N)ncnc3n2C)cc1` (single isomer, unassigned) [Example 472]: 250 to 1000 nM; `C=C(C)C(=O)Nc1ccc(-c2c(-c3ccc(C(=O)N4CCCC4)cc3)c3c(N)ncnc3n2C)c(CC)c1` [Example 516]: less than 100 nM.
For `C=C(C)C(=O)Nc1ccc(-c2c(C3=CCC(Oc4ccn(C)n4)CC3)c3c(N)ncnc3n2C)cc1` (stereo not shown) [Example 551], the IC50 lay in the range of 250 to 1000 nM.
`C=C(C)C(=O)Nc1ccc(-c2c(-c3ccc(C(=O)N4CC(C5CCOC5)C4)cc3)c3c(N)ncnc3n2C)cc1` (stereo not shown) [Example 261] displayed an IC50 of 1000 to 100000 nM.
Next, `C=CC(=O)N1CCC(n2cc(-c3c(-c4ccc(F)c(OC)c4)c4c(N)ncnc4n3C)cn2)CC1` [Example 610]: 250 to 1000 nM.
For `C=CC(=O)Nc1ccc(-c2c(-c3ccc(Sc4ncccn4)c(OC)c3)c3c(N)ncnc3n2C)cc1` [Example 82] the value was less than 100 nM; for `C=CC(=O)N1CCC(n2cc(-c3c(-c4cc(OC)c(Cl)cc4F)c4c(N)ncnc4n3C)cn2)CC1` [Example 614], 1000 to 100000 nM; for `C=C(C)C(=O)Nc1ccc(-c2c(-c3ccc(N(C)C(=O)C4CCCC4)cc3)c3c(N)ncnc3n2C)cc1` [Example 222], 1000 to 100000 nM.
`C=C(C)C(=O)Nc1ccc(-c2c(-c3ccc(C(=O)NCC4CNC4)cc3)c3c(N)ncnc3n2C)cc1` [Example 334] came in with an IC50 of 250 to 1000 nM.
For `C=CC(=O)Nc1ccc(-c2c(Br)c3c(N)ncnc3n2C)cc1` [Example 37] the value was less than 100 nM; for `C=C(C)C(=O)Nc1ccc(-c2c(-c3ccc(-c4nnn(C)n4)nc3)c3c(N)ncnc3n2C)cc1` [Example 132], 1000 to 100000 nM.

These data come from patent US11780845B2 (Relay Therapeutics, Inc., priority 2019, dated 2023).
